In brackets after ≈: the same amount, converted by molar mass.
Assays:
[1] = test system: Mycobacterium tuberculosis variant bovis BCG; test: Antitubercular activity against dormant state Mycobacterium bovis BCG ATCC 35734 assessed as viable cells after 12 days by nitrate reductase assay; type: functional, organism-based; settings: ATCC 35734, 288 h
[2] = test system: Mycobacterium tuberculosis variant bovis BCG; test: Antitubercular activity against active state Mycobacterium bovis BCG ATCC 35734 assessed as viable cells after 8 days by nitrate reductase assay; type: functional, organism-based; settings: ATCC 35734, 192 h

SMILES	IC50 [1] [µg/mL]	MIC [1] [µg/mL]	IC50 [2] [µg/mL]	MIC [2] [µg/mL]
O=C(/C=C\c1cccc(O)c1)N1N=C(c2ccncc2)OC1c1c[nH]c2ccccc12 (stereo not drawn)	> 30	> 30	> 30	> 30
O=C(/C=C\c1ccc(O)cc1)N1N=C(c2ccncc2)OC1c1c[nH]c2ccccc12 (stereo not drawn)	27.9 (≈ 68 µM)	> 30	28.8 (≈ 70.2 µM)	> 30
COc1ccc(/C=C\C(=O)N2N=C(c3ccncc3)OC2c2c[nH]c3ccccc23)cc1 (stereo not drawn)	> 30	> 30	> 30	> 30
O=C(/C=C\c1ccccc1Cl)N1N=C(c2ccncc2)OC1c1c[nH]c2ccccc12 (stereo not drawn)	> 30	> 30	> 30	> 30
O=C(/C=C\c1ccc(F)cc1)N1N=C(c2ccncc2)OC1c1c[nH]c2ccccc12 (stereo not drawn)	> 30	> 30	> 30	> 30
O=C(/C=C\c1cccc([N+](=O)[O-])c1)N1N=C(c2ccncc2)OC1c1c[nH]c2ccccc12 (stereo not drawn)	> 30	> 30	> 30	> 30
O=C(/C=C\c1cccc(Br)c1)N1N=C(c2ccncc2)OC1c1c[nH]c2ccccc12 (stereo not drawn)	21.7 (≈ 45.9 µM)	> 30	> 30	> 30
O=C(/C=C/c1c(Cl)cccc1Cl)N1N=C(c2ccncc2)OC1c1c[nH]c2ccccc12 (stereo not drawn)	19.2 (≈ 41.5 µM)	> 30	> 30	> 30
Cc1ccc(/C=C\C(=O)N2N=C(c3ccncc3)OC2c2c[nH]c3ccccc23)cc1 (stereo not drawn)	> 30	> 30	> 30	> 30
O=C(/C=C\c1ccc([N+](=O)[O-])cc1)N1N=C(c2ccncc2)OC1c1c[nH]c2ccccc12 (stereo not drawn)	1.37 (≈ 3.12 µM)	2.37 (≈ 5.39 µM)	1.42 (≈ 3.23 µM)	2.5 (≈ 5.69 µM)
O=C(/C=C\c1cccc(Cl)c1Cl)N1N=C(c2ccncc2)OC1c1c[nH]c2ccccc12 (stereo not drawn)	> 30	> 30	> 30	> 30
O=C(/C=C\c1ccccc1O)N1N=C(c2ccncc2)OC1c1c[nH]c2ccccc12 (stereo not drawn)	0.68 (≈ 1.66 µM)	1.19 (≈ 2.9 µM)	0.46 (≈ 1.12 µM)	0.94 (≈ 2.29 µM)
O=C(/C=C\c1ccccc1)N1N=C(c2ccncc2)OC1c1c[nH]c2ccccc12 (stereo not drawn)	11.2 (≈ 28.5 µM)	> 30	12.3 (≈ 31.3 µM)	> 30
O=C(/C=C\c1ccc(Cl)cc1)N1N=C(c2ccncc2)OC1c1c[nH]c2ccccc12 (stereo not drawn)	> 30	> 30	> 30	> 30
O=C(/C=C\c1ccccc1F)N1N=C(c2ccncc2)OC1c1c[nH]c2ccccc12 (stereo not drawn)	> 30	> 30	> 30	> 30
O=C(/C=C\c1ccc(Br)cc1)N1N=C(c2ccncc2)OC1c1c[nH]c2ccccc12 (stereo not drawn)	> 30	> 30	> 30	> 30
O=C(/C=C\c1ccc(Cl)cc1Cl)N1N=C(c2ccncc2)OC1c1c[nH]c2ccccc12 (stereo not drawn)	1.5 (≈ 3.24 µM)	4.97 (≈ 10.7 µM)	2.93 (≈ 6.32 µM)	5.17 (≈ 11.2 µM)
O=C(/C=C\c1cccc(F)c1)N1N=C(c2ccncc2)OC1c1c[nH]c2ccccc12 (stereo not drawn)	20.4 (≈ 49.5 µM)	> 30	19.5 (≈ 47.4 µM)	> 30
O=C(/C=C\c1cccc(Cl)c1)N1N=C(c2ccncc2)OC1c1c[nH]c2ccccc12 (stereo not drawn)	> 30	> 30	> 30	> 30
O=C(/C=C\c1ccccc1[N+](=O)[O-])N1N=C(c2ccncc2)OC1c1c[nH]c2ccccc12 (stereo not drawn)	0.36 (≈ 0.819 µM)	0.85 (≈ 1.93 µM)	0.48 (≈ 1.09 µM)	1.03 (≈ 2.34 µM)
NNC(=O)c1ccncc1 [ISONIAZID]	0.0017 (≈ 0.0124 µM)	0.037 (≈ 0.27 µM)	0.0012 (≈ 0.00875 µM)	0.033 (≈ 0.241 µM)
CO[C@H]1/C=C/O[C@@]2(C)Oc3c(C)c(O)c4c(O)c(c(/C=N/N5CCN(C)CC5)c(O)c4c3C2=O)NC(=O)/C(C)=C\C=C\[C@H](C)[C@H](O)[C@@H](C)[C@@H](O)[C@@H](C)[C@H](OC(C)=O)[C@@H]1C [RIFAMPIN]	0.0015 (≈ 0.00182 µM)	0.017 (≈ 0.0207 µM)	0.0012 (≈ 0.00146 µM)	0.015 (≈ 0.0182 µM)
